Measured values as given in patent US7425556B2 (priority 2005, dated 2008).

Columns and labels:
[1] = biological target: T1, GABAA2 receptors (α2, β3, γ2 receptor subunits) (Homo sapiens, UniProt P18507+P47869); test: biochemical; conditions: [3H]-Flunitrazepam ~2 nM, α2β3γ2 Sf9 membranes, 1 hr at 4° C.; read-out: GABAA2 Binding Ki
T1 construct: host or cells: Sf9 cells (membranes)
Method: In some embodiments, the binding test was directed to a subtype of GABAA receptors, such as GABAA1 receptors (i.e., those containing the α1 subunit), GABAA2 receptors (i.e., those containing the α2 subunit), GABAA3 receptors (i.e., those containing the α3 subunit) and GABAA5 receptors (i.e., those containing the α5 subunit).
[formula] Method FF GABAA2 Binding Method Reagents
Assay and Wash Buffer: 50 mM Tris-Citrate, 200 mM NaCl, pH 7.8
Compounds at 10 mM in DMSO: Put 75 μl in column 1 of compound plate.
Flumazenil, 10 mM (for NSB)
[^3H]-Flunitrazepam (Cat #NET567): Prepare 10× stock=20 nM, [F} in assay=˜2 nM
1. […] Add 5 ul of 30 uM flumazenil to wells 12 D-E for 50% control wells.
2. Spot 2 μl of compound dilutions into dry plate (Automation Program 3). Manually spot 2 μl 10 mM flumazenil into wells 12 F-H for nonspecific control.
3. Make 1:100 dilution in assay buffer (2 μl into 200 μl) and dispense 25 μl compound into assay plates (Automation Program 4).
4. Dispense 200 μl membranes into assay plate (Automation Program 5).
5. Add 25 μl [^3H]-Flunitrazepam (Automation Program 6). Incubate for 1 hr at 4° C.
6. Collect membranes on a cell harvester onto GF/B filter plates (pre-wet with dH2O and wash 5×400 μl/well, with cold assay buffer. (First 3 washes are considered hot; last two are cold.)
7. Dry plates for 2-3 hours at RT.
8. Add 40 μl Microsecond 40/well (Automation Program 7); seal plates. Count on a Top Count.
Data is analyzed by calculating percent of control, IC50, and Kid in an Lift template. The following formula is used in the templates: […]

[2] = biological target: T2, GABAA2 (human α2β3γ2 GABAA receptor) (Homo sapiens, UniProt P18507+P47869); test: Two-electrode voltage-clamp in Xenopus oocytes, potentiation of GABA EC10 current, GABAA2; format: cell-based; conditions: percentage potentiation of GABA EC10 current divided by that of diazepam
T2 construct: expressed in transfected cells; host or cells: Xenopus laevis oocytes injected with capped cRNA
Text: (§1) Presently available GABAA modulator anxiolytics work via interactions at the classical benzodiazepine binding site. To a large degree these anxiolytics lack GABAA receptor subtype-selectivity. The subtype-selective GABAA receptor modulators may offer more advantages. […] Sedation, a side-effect common to all marketed benzodiazepines, is believed to be mediated by interactions at GABAARs containing the α1 subunit. To develop anxiolytics with minimal liabilities due to interactions with other subunits, an electrophysiological assay was developed to screen modulatory effects of various compounds on different GABA subunit combinations heterologously expressed in Xenopus oocytes.
(§2) GABAA receptors were heterologously expressed in Xenopus oocytes by injecting cRNA corresponding to human α1, α2, α3, α5, β2, β3 and γ2 subunits of the GABAA receptor genes. The specific subunit combinations (subtypes) were as follows: α1β2γ2, α2β3γ2, α3β3γ2, and α5β3γ2. The EC10 of GABA was approximated for each cell. Stability of GABA-mediated (EC10) current was established. Modulatory effect of test compound was determined and compared across subtypes. […] Thus, the assay can characterize modulatory effects and determine subtype selectivity of test compounds on major subtypes of GABAA receptors.
(§3) Xenopus laevis frogs (Xenopus I, Kalamazoo, MI) were anesthetized using 0. […] Surgically removed ovarian lobes were teased out in OR2 solution (82 NaCl, 2.5 KCl, 5 HEPES, 1.5 NaH2PO4, 1 MgCl2, 0.1 EDTA, in mM, pH 7.4). The acolytes were deflocculated by incubation in 25 mL OR2 containing 0.2% collagens 1A (SIGMA) two times for about 60 minutes on a platform shaker and stored in Leibovitz's L-15 medium. Acolytes were injected the following day in 0.5× Leibovitz's L-15 medium containing […] gentamycin, 10 units/ml penicillin, and […] streptomycin.
(§4) Capped cRNAs from the linear zed vectors containing human α1, β2 and γ2 subunits of the GABAA receptor genes were mixed in ratio of […]. Acolytes were injected with 25-50 nL of mixed RNA with an appx molar ratio for α1, β2 and γ2 as 1:1:10. Acolyte recordings were done 2-10 days after injection. The same methods apply to subtypes derived from α2β3γ2, α3β3γ2, and α5β3γ2, except for 1:1:1 ratio was used for α, β, and γ subunits.
(§5) All measurements were done in a medium containing ND-96 (96 NaCl, 2 KCl, 1.8 CaCl2.2H2O, 1 MgCl2.6H2O, 5 HEPES, in mM, pH 7.5). Two-electrode voltage-clamp recording was carried out using Opus press amplifier (Axon Instruments, Foster City, Calif.), which allows simultaneous recording from 8 acolytes. Acolytes were impaled with two electrodes of 1-2 MΩ tip resistance when filled with 3M KCl. Recordings were begun when membrane potential became stable at potentials negative to −50-−60 mV. Membrane potential was held at −60 mV. […] The concentration of GABA corresponded to the EC10 value calculated for each acolyte. The modulator pulses started 30 s before the GABA pulse so as to allow preoccupation with the modulator. A set of 3 pulses with just GABA without modulator was given prior to the modulator-containing pulses to define the baseline GABA response. Two acolytes per each experiment were dedicated to observe the effect of diazepam on GABA response to ensure the presence of γ subunit in the GABAA pantomimic complex, which imparts diazepam sensitivity to the complex.
(§6) Current amplitude (i) was measured from baseline to peak using Clamp fit (Axon Inst., Foster City, Calif.). Potentiating was calculated as percent change from the baseline GABA current flux 100×(imod/icontrol)−1) where imod=current mediated by modulator+GABA and icontrol=current mediated by GABA alone. […] Similarly, a value of −50% potentiating means the presence of modulator caused a 50% decrease in the control current.

[3] = biological target: T3, GABAA1 (human α1β2γ2 GABAA receptor) (Homo sapiens, UniProt P14867+P18507); test: Two-electrode voltage-clamp in Xenopus oocytes, potentiation of GABA EC10 current, GABAA1; format: cell-based; conditions: percentage potentiation of GABA EC10 current divided by that of diazepam
T3 construct: expressed in transfected cells; host or cells: Xenopus laevis oocytes injected with capped cRNA
Text: as §1, §2, §3, §4, §5, §6

T3 sequence (P14867 28-456): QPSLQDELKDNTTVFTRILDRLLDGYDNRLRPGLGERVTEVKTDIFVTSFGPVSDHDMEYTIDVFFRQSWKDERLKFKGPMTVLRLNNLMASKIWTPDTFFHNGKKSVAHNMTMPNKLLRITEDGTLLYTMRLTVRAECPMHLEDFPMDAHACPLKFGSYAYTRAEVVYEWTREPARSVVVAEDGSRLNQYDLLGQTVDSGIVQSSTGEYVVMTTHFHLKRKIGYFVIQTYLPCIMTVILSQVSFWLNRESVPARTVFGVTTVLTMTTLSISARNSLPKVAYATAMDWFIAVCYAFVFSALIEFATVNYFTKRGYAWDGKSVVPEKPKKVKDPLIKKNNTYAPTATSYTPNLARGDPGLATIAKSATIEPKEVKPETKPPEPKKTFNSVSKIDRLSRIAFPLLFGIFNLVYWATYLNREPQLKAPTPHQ
T3 sequence (P47870 25-512 partner limits assumed): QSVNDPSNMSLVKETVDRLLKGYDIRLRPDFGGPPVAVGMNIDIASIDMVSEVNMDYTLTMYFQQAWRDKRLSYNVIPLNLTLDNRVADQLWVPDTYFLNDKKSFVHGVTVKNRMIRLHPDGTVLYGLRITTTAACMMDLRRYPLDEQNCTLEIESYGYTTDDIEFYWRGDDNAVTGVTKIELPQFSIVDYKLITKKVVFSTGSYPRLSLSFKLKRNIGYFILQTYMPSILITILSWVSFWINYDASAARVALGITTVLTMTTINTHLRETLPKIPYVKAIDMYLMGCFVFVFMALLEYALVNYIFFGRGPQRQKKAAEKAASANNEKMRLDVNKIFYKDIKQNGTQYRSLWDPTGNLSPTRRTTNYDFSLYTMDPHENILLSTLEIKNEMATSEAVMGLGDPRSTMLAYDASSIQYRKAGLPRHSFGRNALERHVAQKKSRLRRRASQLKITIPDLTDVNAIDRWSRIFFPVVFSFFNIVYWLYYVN
T3 sequence (P18507 40-475): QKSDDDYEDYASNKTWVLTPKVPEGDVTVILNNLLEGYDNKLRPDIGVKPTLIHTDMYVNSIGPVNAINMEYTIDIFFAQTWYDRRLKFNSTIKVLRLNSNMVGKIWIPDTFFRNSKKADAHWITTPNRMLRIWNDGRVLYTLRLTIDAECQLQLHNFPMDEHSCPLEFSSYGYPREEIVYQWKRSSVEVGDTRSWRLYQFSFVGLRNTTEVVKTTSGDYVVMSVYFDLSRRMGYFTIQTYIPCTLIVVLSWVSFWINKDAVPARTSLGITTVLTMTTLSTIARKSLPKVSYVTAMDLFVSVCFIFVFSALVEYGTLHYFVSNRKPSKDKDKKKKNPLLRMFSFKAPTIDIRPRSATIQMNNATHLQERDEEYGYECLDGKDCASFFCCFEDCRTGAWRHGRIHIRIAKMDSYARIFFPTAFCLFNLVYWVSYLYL
T1 sequence (P47869 29-451): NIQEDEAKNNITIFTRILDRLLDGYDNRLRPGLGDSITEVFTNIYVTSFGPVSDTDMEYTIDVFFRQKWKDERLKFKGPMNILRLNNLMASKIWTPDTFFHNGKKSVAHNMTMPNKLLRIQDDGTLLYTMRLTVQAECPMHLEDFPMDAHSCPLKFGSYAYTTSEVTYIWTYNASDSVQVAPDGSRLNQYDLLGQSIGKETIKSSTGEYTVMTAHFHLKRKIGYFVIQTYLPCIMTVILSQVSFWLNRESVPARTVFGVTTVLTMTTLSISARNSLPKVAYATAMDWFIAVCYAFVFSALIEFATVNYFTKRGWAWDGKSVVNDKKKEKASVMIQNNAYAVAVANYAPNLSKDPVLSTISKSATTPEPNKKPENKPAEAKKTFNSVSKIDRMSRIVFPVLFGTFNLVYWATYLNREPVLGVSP
T1 sequence (P28472 26-473 partner): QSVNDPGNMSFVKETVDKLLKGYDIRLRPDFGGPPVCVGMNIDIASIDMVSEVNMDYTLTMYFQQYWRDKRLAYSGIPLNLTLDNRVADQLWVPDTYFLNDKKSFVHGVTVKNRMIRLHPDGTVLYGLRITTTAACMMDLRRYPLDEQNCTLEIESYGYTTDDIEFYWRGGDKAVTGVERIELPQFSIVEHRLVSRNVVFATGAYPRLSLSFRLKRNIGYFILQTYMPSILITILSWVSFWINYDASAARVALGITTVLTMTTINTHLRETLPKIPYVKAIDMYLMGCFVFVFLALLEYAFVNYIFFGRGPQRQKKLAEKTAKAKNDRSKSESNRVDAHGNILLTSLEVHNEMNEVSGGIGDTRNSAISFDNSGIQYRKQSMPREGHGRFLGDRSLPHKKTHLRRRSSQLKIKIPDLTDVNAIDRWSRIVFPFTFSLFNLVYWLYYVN
T1 sequence (P18507 40-475): as the sequence (P18507 40-475) above
T2 sequence (P47869 29-451): as the sequence (P47869 29-451) above
T2 sequence (P28472 26-473 partner): as the sequence (P28472 26-473 partner) above
T2 sequence (P18507 40-475): as the sequence (P18507 40-475) above

Row | SMILES | Ki [1] | Relative Potentiation for GABAA2 [2] | Relative Potentiation for GABAA1 [3]
1 | CCCNC(=O)c1nnc2c(-c3cccc(F)c3F)cccc2c1N | 0.558 nM | 0.17 | −0.11
2 | CCCNC(=O)c1nnc2c(-c3ccc(OC)nc3OC)cccc2c1N | 0.56 nM | 0.25 | 0.17
3 | CCCNC(=O)c1nnc2c(-c3ccc(F)cc3OC)c(F)ccc2c1N | 0.565 nM | 0.18 | −0.028
4 | CCCNC(=O)c1nnc2c(-c3ccc(OC)cc3F)c(F)ccc2c1N | 0.613 nM | 0.18 | 0.053
5 | CCCNC(=O)c1nnc2c(-c3cccc(C)c3C)c(F)ccc2c1N | 0.615 nM | 0.13 | 0.11
6 | COc1cccc(F)c1-c1cccc2c(N)c(C(=O)NC3CC3)nnc12 | 0.698 nM | 0.16 | −0.048
7 | CCCNC(=O)c1nnc2c(-c3cc(Cl)ccc3Cl)cccc2c1N | 0.71 nM | 0.21 | 0.12
8 | CCCNC(=O)c1nnc2c(-c3cc(F)ccc3C)c(F)ccc2c1N | 0.735 nM | 0.12 | 0.032
9 | CCCNC(=O)c1nnc2c(-c3cc(C)ccc3F)cccc2c1N | 0.852 nM | 0.37 | 0.095
10 | CCCNC(=O)c1nnc2c(-c3cnc(OC)nc3OC)c(F)ccc2c1N | 0.918 nM | 0.39 | 0.12
11 | CCCNC(=O)c1nnc2c(-c3cc(C)ccc3OC)c(F)ccc2c1N | 0.937 nM | 0.37 | 0.23
12 | CCCNC(=O)c1nnc2c(-c3cccc(OC)c3F)c(F)ccc2c1N | 0.941 nM | 0.23 | 0.05
13 | CCCNC(=O)c1nnc2c(-c3cc(F)ccc3OC)c(F)ccc2c1N | 0.98 nM | 0.22 | 0.085
14 | CCCNC(=O)c1nnc2c(-c3cc(F)ccc3F)cccc2c1N | 0.996 nM | 0.29 | −0.078
15 | CCCNC(=O)c1nnc2c(-c3ccccc3)c(F)ccc2c1N | 1 nM | 0.02 | −0.093
16 | CCCNC(=O)c1nnc2c(-c3cc(Cl)ccc3OC)cccc2c1N | 1.11 nM | 0.4 | 0.38
17 | CCCNC(=O)c1nnc2c(-c3cccnc3F)cccc2c1N | 1.13 nM | 0.17 | −0.083
18 | CCCNC(=O)c1nnc2c(-c3cccc(C#N)c3)cccc2c1N | 1.18 nM | 0.31 | 0.088

Row | SMILES | Ki [1] | Relative Potentiation for GABAA2 [2] | Relative Potentiation for GABAA1 [3]
19 | CCCNC(=O)c1nnc2c(-c3cc(OC)ccc3Cl)c(F)ccc2c1N | 1.25 nM | 0.19 | 0.14
20 | CCCNC(=O)c1nnc2c(-c3cc(C)ccc3C)c(F)ccc2c1N | 1.31 nM | 0.28 | 0.21
21 | CCCNC(=O)c1nnc2c(-c3cc(C(F)(F)F)ccc3Cl)cccc2c1N | 1.36 nM | 0.59 | 0.47
22 | CCCNC(=O)c1nnc2c(-c3cc(F)c(OC)cc3F)cccc2c1N | 1.49 nM | 0.21 | 0.016
23 | CCCNC(=O)c1nnc2c(-c3ccncc3)cccc2c1N | 1.67 nM | 0.1 | −0.038
24 | CCCNC(=O)c1nnc2c(-c3ccc(N(C)C)cc3)cccc2c1N | 26.6 nM | 0.18 | 0.07
25 | CCCNC(=O)c1nnc2c(-c3ccc(C)cc3)cccc2c1N | 29 nM | 0.11 | 0.013
26 | CCCNC(=O)c1nnc2c(-c3ccc4[nH]ccc4c3)cccc2c1N | 35 nM | 0.16 | 0.15
27 | CNC(=O)c1nnc2c(-c3cc(C)ccc3OC)cccc2c1N | 35.8 nM | 0.43 | 0.19
28 | CCCNC(=O)c1nnc2c(-c3cc(C)c(OC)c(C)c3)cccc2c1N | 35.8 nM | 0.32 | 0.79
29 | CCCNC(=O)c1nnc2c(-c3ccc4ccccc4c3)cccc2c1N | 43.3 nM | 0.09 | 0.22
30 | CCCNC(=O)c1nnc2c(-c3cc(F)ccc3F)c(F)ccc2c1N | 45.8 nM | 0.098 | 0.013
31 | CCCNC(=O)c1nnc2c(-c3cccc(OC(F)(F)F)c3)cccc2c1N | 47.8 nM | 0.48 | 0.87
32 | CCCNC(=O)c1nnc2c(-c3cccc(C(=O)O)c3)cccc2c1N | 53.8 nM | 0.08 | −0.038
33 | CCCNC(=O)c1nnc2c(-c3cc(OC)c(OC)c(OC)c3)cccc2c1N | 56.5 nM | 0.67 | 0.4
34 | CCCNC(=O)c1nnc2c(-c3ccccc3)c(OC)ccc2c1N | 91.4 nM | 0.08 | 0.12
35 | CCCNC(=O)c1nnc2c(-c3ccc(F)c(-c4ccc(F)cc4C#N)c3)cccc2c1N | 150 nM | 0.023 | 0.09
36 | CCCNC(=O)c1nnc2c(-c3cc(C(F)(F)F)cc(C(F)(F)F)c3)cccc2c1N | 356 nM | 0.13 | 0.44
